Values of other authors in PMC7395068, “The evolution of strategies to minimise the risk of human drug-induced liver injury (DILI) in drug discovery and development” (Archives of Toxicology, 2020).
Structures can show the parent of a compound that is named as a salt. Where two headings read alike, the source gives them in different places. *1 amine or outer side, *2 acyl side, *3 side chain or, on linkers, in order; H or OH if unused. Where a SMILES comes first, the peptide text is derived from it. Bridges are numbered along the chain shown (N, C = ends). [ ]: non-standard residue; d: D form. The star is where a group is joined. pTerphenylCO(4''-OnC5H11) = CCCCCOc1ccc(-c2ccc(-c3ccc(C(=O)*)cc3)cc2)cc1; Orn(4R-OH,5R-OH) = O=C([C@H](C[C@@H](O)[C@@H](O)N[*:3])N[*:1])[*:2]; hTyr(3S-OH,4S-OH) = N[C@H](C(=O)O)[C@H](O)[C@@H](O)c1ccc(O)cc1; Pro(3S-OH,4S-Me) = C[C@H]1CN[C@H](C(=O)O)[C@H]1O; Hyp = O=C(O)[C@@H]1C[C@@H](O)CN1

Conditions: cited from earlier work
[1] = LTKB DILIrank category, ref Chen 2016
[2] = binary DILI call, ref Chen 2016

| Compound | DILI severity category [1] | DILI +VE (5-8), DILI -VE (-4) [2] | other results |
| --- | --- | --- | --- |
| OC[C@H]1O[C@@H](O[C@@H]2[C@@H](CO)OC(O)(CO)[C@H]2O)[C@H](O)[C@@H](O)[C@H]1O (mixture of isomers) [lactulose] | – | – | DILI +VE (5-8), DILI -VE (-4) (binary in vivo human DILI call, ref Chen 2016): -VE; DILI severity category (human DILI, LTKB DILIrank category, ref Chen 2016): vNo-DILI-Concern |
| CCCCC(C)(O)C/C=C/[C@H]1[C@H](O)CC(=O)[C@@H]1CCCCCCC(=O)OC (mixture of isomers) [misoprostol] | – | – | DILI +VE (5-8), DILI -VE (-4) (in vivo): -VE; DILI severity category (in vivo): Ambiguous DILI-concern |
| O=C(O)CCCc1ccccc1 [4-phenylbutyric acid] | Ambiguous DILI-concern | -VE | – |
| Nc1nc(=O)c2c([nH]1)NC[C@H](CNc1ccc(C(=O)N[C@@H](CCC(=O)O)C(=O)O)cc1)N2C=O [Levoleucovorin] | – | – | DILI +VE (5-8), DILI -VE (-4) (in vivo): -VE; DILI severity category (in vivo): vNo-DILI-Concern |
| CC(=O)NCCCS(=O)(=O)O [acamprosate] | – | – | DILI +VE (5-8), DILI -VE (-4) (in vivo): +VE; DILI severity category (in vivo): vLess-DILI-Concern |
| CCCC(=O)Nc1ccc(OCC(O)CNC(C)C)c(C(C)=O)c1 (centres unmarked) [acebutolol] | vLess-DILI-Concern | – | – |
| O=C(O)COC(=O)Cc1ccccc1Nc1c(Cl)cccc1Cl [aceclofenac] | – | – | DILI +VE (5-8), DILI -VE (-4) (in vivo): +VE; DILI severity category (in vivo): vLess-DILI-Concern |
| CC(=O)NO [acetohydroxamic acid] | – | – | DILI +VE (5-8), DILI -VE (-4) (in vivo): -VE; DILI severity category (in vivo): Ambiguous DILI-concern |
| Nc1ncnc2c1ncn2CCOCP(=O)(O)O [adefovir] | vLess-DILI-Concern | – | – |
| CC(N)C(=O)OC(C)(C)Cc1ccc(Cl)cc1 (centres unmarked) [alaproclate] | vMost-DILI-Concern | – | – |
| C[C@H](N)C(=O)N[C@@H](C)C(=O)N[C@H]1[C@@H]2CN(c3nc4c(cc3F)c(=O)c(C(=O)O)cn4-c3ccc(F)cc3F)C[C@@H]21 [alatrofloxacin mesylate] | vMost-DILI-Concern | – | – |
| C=CCOc1ccc(CC(=O)O)cc1Cl [alclofenac] | vMost-DILI-Concern | – | – |
| COc1cc2nc(N(C)CCCNC(=O)C3CCCO3)nc(N)c2cc1OC (centres unmarked) [alfuzosin] | vLess-DILI-Concern | – | – |
| CN(C)CCc1c[nH]c2ccc(CS(=O)(=O)N3CCCC3)cc12 [almotriptan] | vNo-DILI-Concern | -VE | – |
| Cc1nnc2n1-c1ccc(Cl)cc1C(c1ccccc1)=NC2 [alprazolam] | – | – | DILI +VE (5-8), DILI -VE (-4) (in vivo): +VE; DILI severity category (in vivo): vLess-DILI-Concern |
| C[C@H]1CN(C[C@H](Cc2ccccc2)C(=O)NCC(=O)O)CC[C@@]1(C)c1cccc(O)c1 [alvimopan] | vNo-DILI-Concern | -VE | – |
| CC[N+](CC)(CCNC(=O)C(=O)NCC[N+](CC)(CC)Cc1ccccc1Cl)Cc1ccccc1Cl [ambenonium] | – | – | DILI +VE (5-8), DILI -VE (-4) (in vivo): -VE; DILI severity category (in vivo): vNo-DILI-Concern |
| NCCCNCCSP(=O)(O)O [amifostine] | vNo-DILI-Concern | -VE | – |
| NCCCCCC(=O)O [aminocaproic acid] | vNo-DILI-Concern | -VE | – |
| Nc1ccc(C(=O)NCC(=O)O)cc1 [aminohippurate] | – | – | DILI +VE (5-8), DILI -VE (-4) (in vivo): -VE; DILI severity category (in vivo): vNo-DILI-Concern |
| CCOC(=O)C1=C(COCCN)NC(C)=C(C(=O)OC)C1c1ccccc1Cl (centres unmarked) [amlodipine] | – | – | DILI +VE (5-8), DILI -VE (-4) (in vivo): +VE; DILI severity category (in vivo): vLess-DILI-Concern |
| CC(N)Cc1ccccc1 (centres unmarked) [amphetamine] | – | – | DILI +VE (5-8), DILI -VE (-4) (in vivo): +VE; DILI severity category (in vivo): vLess-DILI-Concern |
| CC(C)CN(C[C@@H](O)[C@H](Cc1ccccc1)NC(=O)O[C@H]1CCOC1)S(=O)(=O)c1ccc(N)cc1 [amprenavir] | Ambiguous DILI-concern | -VE | – |
| O=C1CN2Cc3c(ccc(Cl)c3Cl)N=C2N1 [anagrelide] | Ambiguous DILI-concern | -VE | – |
| CCCCCOc1ccc(-c2ccc(-c3ccc(C(=O)N[C@H]4C[C@@H](O)[C@@H](O)NC(=O)[C@@H]5[C@@H](O)[C@@H](C)CN5C(=O)[C@H]([C@@H](C)O)NC(=O)[C@H]([C@H](O)[C@@H](O)c5ccc(O)cc5)NC(=O)[C@@H]5C[C@@H](O)CN5C(=O)[C@H]([C@@H](C)O)NC4=O)cc3)cc2)cc1 [anidulafungin] ({pTerphenylCO(4''-OnC5H11)}-[Orn(4R-OH,5R-OH)]T[Hyp][hTyr(3S-OH,4S-OH)]T[Pro(3S-OH,4S-Me)]; lactam 1-C) | Ambiguous DILI-concern | -VE | – |
| CN1CCc2cccc3c2[C@H]1Cc1ccc(O)c(O)c1-3 [apomorphine] | vNo-DILI-Concern | -VE | – |

| Compound | DILI severity category [1] | DILI +VE (5-8), DILI -VE (-4) [2] | other results |
| --- | --- | --- | --- |
| NC(=O)C[S@@+]([O-])C(c1ccccc1)c1ccccc1 [armodafinil] | Ambiguous DILI-concern | -VE | – |
| CNCC[C@@H](Oc1ccccc1C)c1ccccc1 [atomoxetine] | vMost-DILI-Concern | – | – |
| O=C1C(O)=C([C@H]2CC[C@H](c3ccc(Cl)cc3)CC2)C(=O)c2ccccc21 [atovaquone] | Ambiguous DILI-concern | -VE | – |
| COc1ccc(CC2c3cc(OC)c(OC)cc3CC[N+]2(C)CCC(=O)OCCCCCOC(=O)CC[N+]2(C)CCc3cc(OC)c(OC)cc3C2Cc2ccc(OC)c(OC)c2)cc1OC (centres unmarked) [atracurium] | vNo-DILI-Concern | -VE | – |
| CC(=O)OC[C@H]1O[C@@H]([S-])[C@H](OC(C)=O)[C@@H](OC(C)=O)[C@@H]1OC(C)=O.CCP(CC)CC.[Au+] [auranofin] | vLess-DILI-Concern | – | – |
| Nc1ncn([C@@H]2O[C@H](CO)[C@@H](O)[C@H]2O)c(=O)n1 [azacitidine] | Ambiguous DILI-concern | -VE | – |
| O=C(O)CCNC(=O)c1ccc(/N=N/c2ccc(O)c(C(=O)O)c2)cc1 [balsalazide] | Ambiguous DILI-concern | -VE | – |
| Cn1c(CCCC(=O)O)nc2cc(N(CCCl)CCCl)ccc21 [bendamustine] | – | – | DILI +VE (5-8), DILI -VE (-4) (in vivo): -VE; DILI severity category (in vivo): vNo-DILI-Concern |
| O=C(O)COc1nn(Cc2ccccc2)c2ccccc12 [bendazac] | vMost-DILI-Concern | – | – |
| NS(=O)(=O)c1cc2c(cc1C(F)(F)F)NC(Cc1ccccc1)NS2(=O)=O (centres unmarked) [bendroflumethiazide] | vLess-DILI-Concern | – | – |
| CCCCNc1ccc(C(=O)OCCOCCOCCOCCOCCOCCOCCOCCOCCOC)cc1 [benzonatate] | vLess-DILI-Concern | – | – |
| C[C@@H](Cc1ccccc1)N(C)Cc1ccccc1 [benzphetamine] | – | – | DILI +VE (5-8), DILI -VE (-4) (in vivo): -VE; DILI severity category (in vivo): vNo-DILI-Concern |
| CC(C)NCC(O)COc1ccc(CCOCC2CC2)cc1 (centres unmarked) [betaxolol] | Ambiguous DILI-concern | -VE | – |
| CC(C[N+](C)(C)C)OC(N)=O (centres unmarked) [bethanechol] | vNo-DILI-Concern | -VE | – |
| CC(C)C[C@H](NC(=O)[C@H](Cc1ccccc1)NC(=O)c1cnccn1)B(O)O [bortezomib] | vMost-DILI-Concern | – | – |
| CC(C)C[C@H]1C(=O)N2CCC[C@H]2[C@]2(O)O[C@](NC(=O)[C@@H]3C=C4c5cccc6[nH]c(Br)c(c56)C[C@H]4N(C)C3)(C(C)C)C(=O)N12 [bromocriptine] | vLess-DILI-Concern | – | – |
| CCC(C)C1(CC)C(=O)NC(=O)NC1=O (centres unmarked) [butabarbital] | Ambiguous DILI-concern | -VE | – |
| C=CCN1C[C@H](C(=O)N(CCCN(C)C)C(=O)NCC)C[C@@H]2c3cccc4[nH]cc(c34)C[C@H]21 [cabergoline] | vNo-DILI-Concern | -VE | – |
| CC(C)C[C@H](NC(=O)[C@H](CCCCN)NC(=O)CNC(=O)[C@H](CC(C)C)NC(=O)[C@@H](NC(=O)[C@@H]1CSSC[C@H](N)C(=O)N[C@@H](CO)C(=O)N[C@@H](CC(N)=O)C(=O)N[C@@H](CC(C)C)C(=O)N[C@@H](CO)C(=O)N[C@@H]([C@@H](C)O)C(=O)N1)C(C)C)C(=O)N[C@@H](CO)C(=O)N[C@@H](CCC(N)=O)C(=O)N[C@@H](CCC(=O)O)C(=O)N[C@@H](CC(C)C)C(=O)N[C@@H](Cc1c[nH]cn1)C(=O)N[C@@H](CCCCN)C(=O)N[C@@H](CC(C)C)C(=O)N[C@@H](CCC(N)=O)C(=O)N[C@H](C(=O)N[C@@H](Cc1ccc(O)cc1)C(=O)N1CCC[C@H]1C(=O)N[C@@H](CCCNC(=N)N)C(=O)N[C@H](C(=O)N[C@@H](CC(N)=O)C(=O)N[C@H](C(=O)NCC(=O)N[C@@H](CO)C(=O)NCC(=O)N[C@H](C(=O)N1CCC[C@H]1C(N)=O)[C@@H](C)O)[C@@H](C)O)[C@@H](C)O)[C@@H](C)O [calcitonin salmon] | – | – | DILI +VE (5-8), DILI -VE (-4) (in vivo): -VE; DILI severity category (in vivo): vNo-DILI-Concern |
| C=C1/C(=C\C=C2/CCC[C@]3(C)[C@@H]([C@H](C)CCCC(C)(C)O)CC[C@@H]23)C[C@@H](O)C[C@@H]1O [calcitriol] | vNo-DILI-Concern | -VE | – |
| CC(=O)[O-].CC(=O)[O-].[Ca+2] [calcium acetate] | – | – | DILI +VE (5-8), DILI -VE (-4) (in vivo): -VE; DILI severity category (in vivo): vNo-DILI-Concern |
| CCCCCOC(=O)Nc1nc(=O)n([C@@H]2O[C@H](C)[C@@H](O)[C@H]2O)cc1F [capecitabine] | Ambiguous DILI-concern | -VE | – |
| CC1(C)S[C@@H]2[C@H](NC(=O)C(C(=O)O)c3ccccc3)C(=O)N2[C@H]1C(=O)O (some centres unmarked) [carbenicillin] | vLess-DILI-Concern | – | – |
| CN(C)CCOC(c1ccc(Cl)cc1)c1ccccn1 (centres unmarked) [carbinoxamine] | vNo-DILI-Concern | -VE | – |
| CCCCC[C@](C)(O)/C=C/[C@@H]1[C@@H](C/C=C\CCCC(=O)O)[C@@H](O)C[C@H]1O [carboprost tromethamine] | vNo-DILI-Concern | -VE | – |
| COc1ccccc1OCCNCC(O)COc1cccc2[nH]c3ccccc3c12 (centres unmarked) [carvedilol] | vLess-DILI-Concern | – | – |
